Measured values from ChEMBL document CHEMBL5303573, “Mapping human microbiome drug metabolism by gut bacteria and their genes” (Nature, 2019).

How the values were obtained:
[1] = The drug is tested on Eubacterium hallii strain: DSM3353 for biotransformation. The drug concentrations were measured before and after a 12-h incubation by liquid-chromatography-coupled mass spectrometry (LC–MS); conditions: anaerobutyricum hallii, 2 µM
[2] = The drug is tested on Bacteroides uniformis strain: ATCC8492 for biotransformation. The drug concentrations were measured before and after a 12-h incubation by liquid-chromatography-coupled mass spectrometry (LC–MS); conditions: 2 µM
[3] = bacteroides fragilis, 12 h, 2 µM
Description: The drug is tested on Bacteroides fragilis strain: 3397 (T10) for biotransformation. The drug concentrations were measured before and after a 12-h incubation by liquid-chromatography-coupled mass spectrometry (LC–MS)

[4] = The drug is tested on Eubacterium rectale strain: ATCC33656 for biotransformation. The drug concentrations were measured before and after a 12-h incubation by liquid-chromatography-coupled mass spectrometry (LC–MS); conditions: agathobacter rectalis, 2 µM
[5] = The drug is tested on Bacteroides fragilis strain: HMW615 for biotransformation. The drug concentrations were measured before and after a 12-h incubation by liquid-chromatography-coupled mass spectrometry (LC–MS); conditions: 2 µM
[6] = The drug is tested on Bacteroides dorei strain: DSM17855 for biotransformation. The drug concentrations were measured before and after a 12-h incubation by liquid-chromatography-coupled mass spectrometry (LC–MS); conditions: phocaeicola dorei, 2 µM
[7] = The drug is tested on Escherichia coli strain: BW25113 for biotransformation. The drug concentrations were measured before and after a 12-h incubation by liquid-chromatography-coupled mass spectrometry (LC–MS); conditions: 2 µM
[8] = The drug is tested on Bacteroides finegoldii strain: DSM17565 for biotransformation. The drug concentrations were measured before and after a 12-h incubation by liquid-chromatography-coupled mass spectrometry (LC–MS); conditions: 2 µM
[9] = The drug is tested on Clostridium asparagiforme strain: DSM15981 for biotransformation. The drug concentrations were measured before and after a 12-h incubation by liquid-chromatography-coupled mass spectrometry (LC–MS); type: ADME; design: dose 2 uM, timepoint 0 vs 12 hours; conditions: enterocloster asparagiformis, 2 µM
[10] = The drug is tested on Coprococcus comes strain: ATCC27758 for biotransformation. The drug concentrations were measured before and after a 12-h incubation by liquid-chromatography-coupled mass spectrometry (LC–MS); type: ADME; design: dose 2 uM, timepoint 0 vs 12 hours; conditions: 2 µM
[11] = parabacteroides distasonis, 12 h, 2 µM
Description: The drug is tested on Parabacteroides distasonis strain: ATCC8503 for biotransformation. The drug concentrations were measured before and after a 12-h incubation by liquid-chromatography-coupled mass spectrometry (LC–MS)

[12] = The drug is tested on Subdoligranulum variabile strain: DSM15176 for biotransformation. The drug concentrations were measured before and after a 12-h incubation by liquid-chromatography-coupled mass spectrometry (LC–MS); conditions: 2 µM
[13] = The drug is tested on Bacteroides fragilis strain: HMW610 for biotransformation. The drug concentrations were measured before and after a 12-h incubation by liquid-chromatography-coupled mass spectrometry (LC–MS); conditions: 2 µM
[14] = The drug is tested on Bifidobacterium breve strain: DSM20213 for biotransformation. The drug concentrations were measured before and after a 12-h incubation by liquid-chromatography-coupled mass spectrometry (LC–MS); conditions: 2 µM
[15] = The drug is tested on Anaerococcus hydrogenalis strain: DSM7454 for biotransformation. The drug concentrations were measured before and after a 12-h incubation by liquid-chromatography-coupled mass spectrometry (LC–MS); conditions: 2 µM
[16] = The drug is tested on Bifidobacterium longum subsp. Infantis strain: CCUG52486 for biotransformation. The drug concentrations were measured before and after a 12-h incubation by liquid-chromatography-coupled mass spectrometry (LC–MS); conditions: 2 µM
[17] = The drug is tested on Dorea formicigenerans strain: ATCC27755 for biotransformation. The drug concentrations were measured before and after a 12-h incubation by liquid-chromatography-coupled mass spectrometry (LC–MS); conditions: 2 µM
[18] = The drug is tested on Collinsella aerofaciens strain: ATCC25986 for biotransformation. The drug concentrations were measured before and after a 12-h incubation by liquid-chromatography-coupled mass spectrometry (LC–MS); conditions: 2 µM
[19] = The drug is tested on Anaerotruncus colihominis strain: DSM17241 for biotransformation. The drug concentrations were measured before and after a 12-h incubation by liquid-chromatography-coupled mass spectrometry (LC–MS); conditions: 2 µM
[20] = The drug is tested on Providencia stuartii strain: ATCC25827 for biotransformation. The drug concentrations were measured before and after a 12-h incubation by liquid-chromatography-coupled mass spectrometry (LC–MS); conditions: 2 µM

| SMILES | Bacterial Biotransformation [1] | Bacterial Biotransformation [2] | Bacterial Biotransformation [3] | Bacterial Biotransformation [4] | Bacterial Biotransformation [5] | Bacterial Biotransformation [6] | Bacterial Biotransformation [7] | Bacterial Biotransformation [8] | Bacterial Biotransformation [9] | Bacterial Biotransformation [10] | Bacterial Biotransformation [11] | Bacterial Biotransformation [12] | Bacterial Biotransformation [13] | Bacterial Biotransformation [14] | Bacterial Biotransformation [15] | Bacterial Biotransformation [16] | Bacterial Biotransformation [17] | Bacterial Biotransformation [18] | Bacterial Biotransformation [19] | Bacterial Biotransformation [20] |
| --- | --- | --- | --- | --- | --- | --- | --- | --- | --- | --- | --- | --- | --- | --- | --- | --- | --- | --- | --- | --- |
| O=C(O)c1cc(/N=N/c2ccc(S(=O)(=O)Nc3ccccn3)cc2)ccc1O [SULFASALAZINE] | Compound metabolized | Compound metabolized | Compound metabolized | Compound metabolized | Compound metabolized | Compound metabolized | Compound metabolized | Compound metabolized | Compound metabolized | Compound metabolized | Compound metabolized | Compound metabolized | Compound metabolized | Compound metabolized | Compound metabolized | Compound metabolized | Compound metabolized | Compound metabolized | Compound metabolized | – |
| CC(C)C[C@H]1C(=O)N2CCC[C@H]2[C@]2(O)O[C@](NC(=O)[C@@H]3C=C4c5cccc6[nH]c(Br)c(c56)C[C@H]4N(C)C3)(C(C)C)C(=O)N12.CS(=O)(=O)O [BROMOCRIPTINE MESYLATE] | Compound metabolized | Compound metabolized | Compound metabolized | Compound metabolized | Compound metabolized | Compound metabolized | Compound metabolized | Compound metabolized | Compound metabolized | – | Compound metabolized | Compound metabolized | Compound metabolized | Compound metabolized | Compound metabolized | Compound metabolized | Compound metabolized | Compound metabolized | Compound metabolized | Compound metabolized |
| Cc1nc2n(c(=O)c1CCN1CCC(c3noc4cc(F)ccc34)CC1)CCCC2O (stereo unspecified) [PALIPERIDONE] | Compound metabolized | Compound metabolized | Compound metabolized | Compound metabolized | Compound NOT metabolized | Compound metabolized | Compound metabolized | Compound metabolized | Compound metabolized | Compound metabolized | Compound metabolized | Compound metabolized | Compound NOT metabolized | Compound metabolized | Compound metabolized | Compound metabolized | Compound metabolized | Compound metabolized | Compound metabolized | – |
| CNC(=C[N+](=O)[O-])NCCSCc1ccc(CN(C)C)o1 [RANITIDINE] | Compound metabolized | Compound NOT metabolized | Compound NOT metabolized | Compound metabolized | Compound NOT metabolized | Compound metabolized | Compound NOT metabolized | – | Compound metabolized | Compound metabolized | Compound NOT metabolized | Compound metabolized | Compound NOT metabolized | Compound metabolized | Compound metabolized | Compound metabolized | Compound metabolized | Compound metabolized | Compound metabolized | Compound NOT metabolized |
| CC(Oc1c(Cl)cccc1Cl)C1=NCCN1 (stereo unspecified) [LOFEXIDINE] | Compound metabolized | Compound metabolized | Compound metabolized | Compound metabolized | Compound NOT metabolized | Compound metabolized | Compound metabolized | Compound metabolized | Compound metabolized | Compound metabolized | Compound NOT metabolized | Compound metabolized | – | Compound metabolized | Compound metabolized | Compound metabolized | Compound metabolized | Compound metabolized | Compound metabolized | Compound metabolized |
| CC[C@H](C)C(=O)O[C@H]1C[C@@H](C)C=C2C=C[C@H](C)[C@H](CC[C@@H]3C[C@@H](O)CC(=O)O3)[C@H]21 [LOVASTATIN] | Compound metabolized | Compound metabolized | Compound metabolized | Compound NOT metabolized | Compound metabolized | Compound metabolized | Compound NOT metabolized | – | Compound metabolized | Compound NOT metabolized | Compound metabolized | Compound NOT metabolized | Compound metabolized | Compound metabolized | Compound metabolized | Compound NOT metabolized | Compound NOT metabolized | Compound NOT metabolized | Compound metabolized | – |
| CCc1oc2ccccc2c1C(=O)c1cc(Br)c(O)c(Br)c1 [BENZBROMARONE] | Compound NOT metabolized | Compound NOT metabolized | Compound NOT metabolized | Compound NOT metabolized | Compound NOT metabolized | – | Compound NOT metabolized | Compound NOT metabolized | Compound NOT metabolized | Compound NOT metabolized | Compound NOT metabolized | Compound NOT metabolized | Compound NOT metabolized | Compound metabolized | Compound NOT metabolized | Compound NOT metabolized | Compound NOT metabolized | Compound NOT metabolized | Compound NOT metabolized | Compound NOT metabolized |
| CNCCC(Oc1ccc(C(F)(F)F)cc1)c1ccccc1 (stereo unspecified) [FLUOXETINE] | Compound metabolized | Compound metabolized | Compound metabolized | Compound metabolized | Compound metabolized | Compound metabolized | Compound metabolized | Compound NOT metabolized | Compound metabolized | – | Compound metabolized | Compound metabolized | Compound metabolized | Compound metabolized | Compound NOT metabolized | Compound metabolized | Compound metabolized | Compound metabolized | Compound NOT metabolized | Compound metabolized |
